Laboratory results from PubChem BioAssay (NCI).
Values joined by “and” are separate entries in the source; they are usually repeats but may differ in a detail not shown here. Equal entries are not always repeated.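 Step 1: Grow cells in 96-well plates. Step 2: Expose to compound for 48 hours at 5 concentrations. Step 3: Interpolate endpoints linearly; if unreached, use highest concentration. At the GI50, growth is halved. The concentration for full growth arrest is given as TGI.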 Where a SMILES comes first, the peptide text is derived from it. [ ]: non-standard residue; d: D form. NMeY = CN[C@@H](Cc1ccc(O)cc1)C(=O)O; dNMeF = CN[C@H](Cc1ccccc1)C(=O)O; Sar = CNCC(=O)O

System: MDA-MB-468 breast
Experiment: NCI anticancer screen, dose series, 48 h

First: CNC(=O)c1cc(-n2ccc3cc(NC(=O)Nc4ccc(N5CCN(C)CC5)c(C(F)(F)F)c4)ccc32)ccn1
Second: Cc1ncc(C(=O)Nc2ccc(CN3CCN(C)CC3)c(C(F)(F)F)c2)cc1C#Cc1cnc(N)c2ncccc12
The GI50 of the first is 3.2-fold higher: 3.48 µM for the first, 1.1 µM for the second.

Going from Nc1nc(N)c2c(ccc3nccc32)[nH]1 to O=C1c2ccccc2-c2n[nH]c3cccc1c23, the GI50 rises from 3.28 µM to 17.3 µM (5.3-fold).

CC[C@H](C)[C@@H]1NC(=O)[C@H](Cc2ccc(O)cc2)N(C)C(=O)[C@H](Cc2ccccc2)NC(=O)CN(C)C(=O)[C@@H]2CCCN2C(=O)[C@@H](Cc2ccccc2)N(C)C(=O)[C@H](CC(C)C)NC1=O (cyclo(F[NMeY]IL[dNMeF]P[Sar])) and CC[C@H](C)[C@H](NC(=O)Nc1ccccc1)C(=O)N(C)[C@H](C[C@@H](OC(C)=O)c1nc(C(=O)N[C@@H](Cc2ccccc2)C[C@H](C)C(=O)OC)cs1)C(C)C are within 1.5-fold of each other in GI50: 0.367 µM for the first, 0.514 µM for the second.

Compared with O=C1Nc2cc(Cl)ccc2/C1=C\c1ccc(OCc2ccc(Br)cc2F)cc1, COc1ccc(-c2cc(-c3cn[nH]c3-c3ccccn3)ccn2)cc1 is higher in GI50: 2.13 µM for the first, over 25 µM for the second.

First: C[C@H](Nc1ncnc2ccc(-c3cnc(Cl)c(NS(C)(=O)=O)c3)cc12)c1ccccc1
Second: COc1cccc(-n2ncc3c(N/N=C/c4ccc(S(C)(=O)=O)cc4)ncnc32)c1
The GI50 of the first is 33-fold lower: 0.111 µM for the first, 3.66 µM for the second.

ClC1=NC(Cl)C(Cl)=N/C1=N\c1ncn[nH]1 (configuration not stated) and C#C[C@@]1(O)[C@@H](CO)O[C@@H](n2ccc3c(N)ncnc32)[C@@H]1O are within 1.5-fold of each other in GI50: 1.6 µM for the first, 1.3 µM for the second.

First: C/C(=C(/c1ccc(O)cc1)c1ccc(OCCN2CCCCCC2)cc1)c1ccccc1
Second: N#Cc1cccc(/C=C(/C(=O)c2ccccc2)c2ccccc2)c1
The GI50 of the first is 18-fold higher: 41.2 µM for the first, 2.3 µM for the second.

First: Cc1cc2c3ccccc3ccc2[n+]2ccccc12
Second: CCOC(=O)Cn1c(C)c(/C=N/NC(=O)c2cc3c(ccc4ccccc43)o2)c2ccccc21
The GI50 of the first is 1.6-fold higher: 0.524 µM for the first, 0.326 µM for the second.

Going from COc1ccc2c(c1)sc1nc(-c3ccccc3)c(-c3ccc(O)c(OC)c3)n12 to COc1ccc2[nH]c(=O)c(/C=C/C(=O)/C=C/c3ccc(O)c(OC)c3)cc2c1, the GI50 falls from 24.4 µM to 1.37 µM (18-fold).

First: CN(C)C(=O)c1cc2cnc(Nc3ccc(-c4csc5c(=O)cc(N6CCNCC6)oc45)cc3)nc2n1C1CCCC1
Second: CN1CCN(Cc2ccc(NC(=O)c3nc4ccc5[nH]ncc5c4c4c3CCC4)cc2C(F)(F)F)CC1
The GI50 of the first is 1.9-fold lower: 0.482 µM for the first, 0.936 µM for the second.

First: CCN(C(=O)CCl)C(C)(C)C(SSSC(c1ccc(Cl)cc1)C(C)(C)N(CC)C(=O)CCl)c1ccc(Cl)cc1 (configuration not stated)
Second: CCOC(=O)c1ccc(Nc2sc(C(=O)c3cccc([N+](=O)[O-])c3)c(N)c2C#N)cc1
The GI50 of the first is 8.9-fold higher: 1.97 µM for the first, 0.222 µM for the second.

Going from CC1(O)CC2(O)C=CC3=C(C(=O)c4cccc(O)c4C3=O)C2(O)C(=O)C1O (configuration not stated) to C/C(=N\NC(=O)c1ccccc1O)c1cccc(/C(C)=N/NC(=O)c2ccccc2O)n1, the GI50 falls from 0.735 µM to 0.317 µM (2.3-fold).

Going from CC1(C)CC(OCCCC[P+](c2ccccc2)(c2ccccc2)c2ccccc2)CC(C)(C)N1O to ICCC(c1ccccc1)(c1ccccc1)c1ccccc1, the GI50 rises from 0.331 µM to 3.17 µM (9.6-fold).

First: O=C(NC(=S)NNC(=S)NNc1ccccc1)c1ccccc1
Second: Cc1ccc(N=Nc2c(N)nn(-c3ccccc3)c2N)cc1
The GI50 of the first is 15-fold higher: 8.92 µM for the first, 0.613 µM for the second.

Compared with Nc1c(C(=O)c2cccc(C#CCN3CCOCC3)c2)cnn1-c1ccc(F)cc1, Nc1c(C(=O)c2cccc(CCC3(O)CCCC3)c2)cnn1-c1ccc(F)cc1 is 1.6-fold lower in GI50: 9.82 µM for the first, 5.97 µM for the second.

Compared with c1ccc(-c2nnc(Nc3ccc4c(c3)OCCO4)o2)c(NCc2ccncc2)c1, Cc1ccc(-c2cc3nc(C(Cl)Cl)nc(-c4cccnc4)n3n2)cc1 is 4.3-fold higher in GI50: 0.0953 µM for the first, 0.407 µM for the second.

Compared with N#CSCc1c(Cl)cccc1Cl, CC1(C)N=C(N)N=C(N)N1c1cccc(CCCCc2ccccc2)c1 is 26-fold lower in GI50: 3.82 µM for the first, 0.149 µM for the second.

First: COc1ccc(/C=C/C(=O)c2ccc3cc(OC)c(OC)cc3c2)cc1OC
Second: COc1cc(Cn2ccc3c2-c2oncc2CC3)cc(OC)c1
The GI50 of the first is 3.2-fold higher: 2.68 µM for the first, 0.84 µM for the second.

First: CCCCCCCCCCCC[n+]1ccccc1
Second: C=CC(=O)N1CCC([C@@H]2CCNc3c(C(N)=O)c(-c4ccc(Oc5ccccc5)cc4)nn32)CC1
The GI50 of the first is 4.4-fold higher: 0.252 µM for the first, 0.057 µM for the second.

First: Cc1ccc2c(Nc3cccc(Cl)c3F)ncc(NC(=O)c3csc4c(N)ncnc34)c2c1
Second: O=c1oc2ccc(Cl)cc2c(=O)n1-c1cc(C(F)(F)F)cc(C(F)(F)F)c1
The GI50 of the first is higher: over 100 µM for the first, 0.236 µM for the second.

Going from CC(=O)OC1CCC2(C)C(CCC3C4CC=C(C(C)=O)C4(C)OC(=O)CC32)C1 (configuration not stated) to CO[C@H]1C[C@@H]2CC[C@@H](C)[C@@](O)(O2)C(=O)C(=O)N2CCCC[C@H]2C(=O)O[C@H]([C@H](C)C[C@@H]2CC[C@@H](OP(C)(C)=O)[C@H](OC)C2)CC(=O)[C@H](C)/C=C(\C)[C@@H](O)[C@@H](OC)C(=O)[C@H](C)C[C@H](C)/C=C/C=C/C=C/1C, the GI50 falls from 1.64 µM to under 0.01 µM.

With Nc1ccn(C2CC(O)C(CO)O2)c(=O)n1 (configuration not stated) the GI50 was over 5000 µM.

Compared with CNC(=O)c1cc(-n2ccc3cc(NC(=O)Nc4ccc(N5CCN(C)CC5)c(C(F)(F)F)c4)ccc32)ccn1, Cc1ncc(C(=O)Nc2ccc(CN3CCN(C)CC3)c(C(F)(F)F)c2)cc1C#Cc1cnc(N)c2ncccc12 is 2.9-fold lower in TGI: 7.57 µM for the first, 2.58 µM for the second.

Going from Nc1nc(N)c2c(ccc3nccc32)[nH]1 to O=C1c2ccccc2-c2n[nH]c3cccc1c23, the TGI rises from 21.3 µM to over 100 µM.

First: CC[C@H](C)[C@@H]1NC(=O)[C@H](Cc2ccc(O)cc2)N(C)C(=O)[C@H](Cc2ccccc2)NC(=O)CN(C)C(=O)[C@@H]2CCCN2C(=O)[C@@H](Cc2ccccc2)N(C)C(=O)[C@H](CC(C)C)NC1=O (cyclo(F[NMeY]IL[dNMeF]P[Sar]))
Second: CC[C@H](C)[C@H](NC(=O)Nc1ccccc1)C(=O)N(C)[C@H](C[C@@H](OC(C)=O)c1nc(C(=O)N[C@@H](Cc2ccccc2)C[C@H](C)C(=O)OC)cs1)C(C)C
The TGI of the first is 2.6-fold lower: 2.82 µM for the first, 7.22 µM for the second.

First: O=C1Nc2cc(Cl)ccc2/C1=C\c1ccc(OCc2ccc(Br)cc2F)cc1
Second: COc1ccc(-c2cc(-c3cn[nH]c3-c3ccccn3)ccn2)cc1
The TGI of the first is lower: 5.21 µM for the first, over 25 µM for the second.

Compared with C[C@H](Nc1ncnc2ccc(-c3cnc(Cl)c(NS(C)(=O)=O)c3)cc12)c1ccccc1, COc1cccc(-n2ncc3c(N/N=C/c4ccc(S(C)(=O)=O)cc4)ncnc32)c1 is 20-fold higher in TGI: 0.841 µM for the first, 16.5 µM for the second.

ClC1=NC(Cl)C(Cl)=N/C1=N\c1ncn[nH]1 (configuration not stated) and C#C[C@@]1(O)[C@@H](CO)O[C@@H](n2ccc3c(N)ncnc32)[C@@H]1O are within 1.5-fold of each other in TGI: 3.39 µM for the first, 3.33 µM for the second.

Going from C/C(=C(/c1ccc(O)cc1)c1ccc(OCCN2CCCCCC2)cc1)c1ccccc1 to N#Cc1cccc(/C=C(/C(=O)c2ccccc2)c2ccccc2)c1, the TGI falls from over 100 µM to 7.63 µM.

First: Cc1cc2c3ccccc3ccc2[n+]2ccccc12
Second: CCOC(=O)Cn1c(C)c(/C=N/NC(=O)c2cc3c(ccc4ccccc43)o2)c2ccccc21
The TGI of the first is 1.6-fold higher: 2.13 µM for the first, 1.34 µM for the second.

Going from COc1ccc2c(c1)sc1nc(-c3ccccc3)c(-c3ccc(O)c(OC)c3)n12 to COc1ccc2[nH]c(=O)c(/C=C/C(=O)/C=C/c3ccc(O)c(OC)c3)cc2c1, the TGI falls from over 100 µM to 4.58 µM.

CN(C)C(=O)c1cc2cnc(Nc3ccc(-c4csc5c(=O)cc(N6CCNCC6)oc45)cc3)nc2n1C1CCCC1 and CN1CCN(Cc2ccc(NC(=O)c3nc4ccc5[nH]ncc5c4c4c3CCC4)cc2C(F)(F)F)CC1 are within 1.5-fold of each other in TGI: 2.53 µM for the first, 2.08 µM for the second.

CCN(C(=O)CCl)C(C)(C)C(SSSC(c1ccc(Cl)cc1)C(C)(C)N(CC)C(=O)CCl)c1ccc(Cl)cc1 (configuration not stated) and CCOC(=O)c1ccc(Nc2sc(C(=O)c3cccc([N+](=O)[O-])c3)c(N)c2C#N)cc1 are within 1.5-fold of each other in TGI: 5.39 µM for the first, 4.53 µM for the second.

Compared with CC1(O)CC2(O)C=CC3=C(C(=O)c4cccc(O)c4C3=O)C2(O)C(=O)C1O (configuration not stated), C/C(=N\NC(=O)c1ccccc1O)c1cccc(/C(C)=N/NC(=O)c2ccccc2O)n1 is higher in TGI: 2.09 µM for the first, over 100 µM for the second.

Going from CC1(C)CC(OCCCC[P+](c2ccccc2)(c2ccccc2)c2ccccc2)CC(C)(C)N1O to ICCC(c1ccccc1)(c1ccccc1)c1ccccc1, the TGI rises from 2.87 µM to 13.3 µM (4.6-fold).

O=C(NC(=S)NNC(=S)NNc1ccccc1)c1ccccc1 and Cc1ccc(N=Nc2c(N)nn(-c3ccccc3)c2N)cc1 cannot be ordered by TGI: over 100 µM for the first, over 100 µM for the second.

Nc1c(C(=O)c2cccc(C#CCN3CCOCC3)c2)cnn1-c1ccc(F)cc1 and Nc1c(C(=O)c2cccc(CCC3(O)CCCC3)c2)cnn1-c1ccc(F)cc1 cannot be ordered by TGI: over 25 µM for the first, over 25 µM for the second.

First: c1ccc(-c2nnc(Nc3ccc4c(c3)OCCO4)o2)c(NCc2ccncc2)c1
Second: Cc1ccc(-c2cc3nc(C(Cl)Cl)nc(-c4cccnc4)n3n2)cc1
The TGI of the first is 4-fold lower: 0.528 µM for the first, 2.13 µM for the second.

First: N#CSCc1c(Cl)cccc1Cl
Second: CC1(C)N=C(N)N=C(N)N1c1cccc(CCCCc2ccccc2)c1
The TGI of the first is higher: over 100 µM for the first, 13.8 µM for the second.

COc1ccc(/C=C/C(=O)c2ccc3cc(OC)c(OC)cc3c2)cc1OC and COc1cc(Cn2ccc3c2-c2oncc2CC3)cc(OC)c1 are within 1.5-fold of each other in TGI: 10.2 µM for the first, 7 µM for the second.

Going from CCCCCCCCCCCC[n+]1ccccc1 to C=CC(=O)N1CCC([C@@H]2CCNc3c(C(N)=O)c(-c4ccc(Oc5ccccc5)cc4)nn32)CC1, the TGI falls from 2.02 µM to 0.711 µM (2.8-fold).

Compared with Cc1ccc2c(Nc3cccc(Cl)c3F)ncc(NC(=O)c3csc4c(N)ncnc34)c2c1, O=c1oc2ccc(Cl)cc2c(=O)n1-c1cc(C(F)(F)F)cc(C(F)(F)F)c1 is lower in TGI: over 100 µM for the first, 0.754 µM for the second.

Compared with CC(=O)OC1CCC2(C)C(CCC3C4CC=C(C(C)=O)C4(C)OC(=O)CC32)C1 (configuration not stated), CO[C@H]1C[C@@H]2CC[C@@H](C)[C@@](O)(O2)C(=O)C(=O)N2CCCC[C@H]2C(=O)O[C@H]([C@H](C)C[C@@H]2CC[C@@H](OP(C)(C)=O)[C@H](OC)C2)CC(=O)[C@H](C)/C=C(\C)[C@@H](O)[C@@H](OC)C(=O)[C@H](C)C[C@H](C)/C=C/C=C/C=C/1C is 4.6-fold higher in TGI: 3.74 µM for the first, 17.1 µM for the second.

Work on Nc1ccn(C2CC(O)C(CO)O2)c(=O)n1 (configuration not stated) yielded a TGI of over 5000 µM.

In the case of CC1(C)CC(=O)c2c(ccc(C(=O)C[C@H](N)CO)c2N)O1, the TGI is reported as 17.5 µM and 5.83 µM.
